Here are results for two compounds from US8563549B2, “Pyrimidine derivatives used as PI-3 kinase inhibitors” (Novartis AG, priority 2006, dated 2013).

Assay [1] relates to Akt^Ser473 phosphorylation. The assay can be described thus: In vivo target modulation (PK/PD) in A2780 xenograft tumors (Biological Method 3). On the set-up: species or system nu/nu mice. The text has this:
A2780 ovarian cancer cells obtained from George Coukos (Fox Chase Cancer Center, University of Pennsylvania, Philadelphia, Pa.) were maintained in DMEM (Invitrogen, Inc.) supplemented with 10% heat-inactivated fetal bovine serum with 1% glutamine. Cells were propagated as recommended by the Dr. Coukos and colleagues. Female nu/nu mice (8-12 weeks old, 20-25 g, Charles River) were used for all in vivo pharmacology studies. The mice were housed and maintained in accordance with state and federal guidelines for the humane treatment and care of laboratory animals and received food and water ad libitum. Cancer cells were harvested from mid-log phase cultures using trypsin-EDTA (Invitrogen, Inc.). […] Tumor volumes were determined by using StudyDirector software.
For PK/PD dose-dependent studies, tumor-bearing mice were given a single oral dose of compound at different concentrations (10, 30, 60 and 100 mg/kg or vehicle) and tumors were resected at 10 hr or 24 hr after dosing. […] Supernatants were taken after centrifugation of tumor lysates at 300×g for 10 min at 4° C. and the protein concentration in each supernatant was determined by BCA (BioRad). […] The density of the positive band on the X-ray film was scanned and the target modulation for each compound was expressed as percentage inhibition by each compound compared to vehicle treatment. […]

The subject of a further assay is A2780 tumor xenograft. The assay can be described thus: Efficacy study in A2780 ovarian cancer xenograft model (Biological Method 3). The format is in vivo, nu/nu mice. The note with it: oral. An excerpt: A2780 ovarian cancer cells obtained from George Coukos (Fox Chase Cancer Center, University of Pennsylvania, Philadelphia, Pa.) were maintained in DMEM (Invitrogen, Inc.) supplemented with 10% heat-inactivated fetal bovine serum with 1% glutamine. Cells were propagated as recommended by the Dr. Coukos and colleagues. Female nu/nu mice (8-12 weeks old, 20-25 g, Charles River) were used for all in vivo pharmacology studies. The mice were housed and maintained in accordance with state and federal guidelines for the humane treatment and care of laboratory animals and received food and water ad libitum. Cancer cells were harvested from mid-log phase cultures using trypsin-EDTA (Invitrogen, Inc.). Five million cells were subcutaneously injected into the right flank of each mouse. Compound treatment was initiated when tumor size reached to 300-400 mm^3 for PK/PD studies and 200-300 mm^3 for efficacy studies. All compound treatment was administrated orally. Tumor volumes were determined by using StudyDirector software.
For efficacy studies, A2780 cancer cells (5×10^6 in 100 μl of DMEM culture medium) were injected subcutaneously into the right flank of each nu/nu mouse. […] Tumor growth and animal body weight was measured twice weekly with daily clinical observation to monitor potential toxicities related to the treatment. […]

With `Nc1ncc(-c2cc(OC3CCOCC3)nc(N3CCOCC3)n2)c(C(F)(F)F)n1` [Compound 66], the “Duration of inhibition of Akt^Ser473 (>50% inhibition)” value in assay [1] is more than 10 h.
On to `Nc1cc(C(F)(F)F)c(-c2cc(N3CCOCC3)nc(N3CCOCC3)n2)cn1` [Compound 10], for which the “Duration of inhibition of Akt^Ser473 (>50% inhibition)” value in assay [1] is more than 10 h. Also, the Antitumor activity entry in the assay with A2780 tumor xenograft (b.i.d., 30 mg/kg (FIG. 5)) is on record as “significant antitumor activity”. In the assay with A2780 tumor xenograft (daily, 100 mg/kg), the Tumor growth inhibition entry is on record as “tumor growth stasis”.
